Measured values as given in patent publication US8003676B2, “1,3,4-oxadiazole derivatives as DGAT1 inhibitors” (AstraZeneca AB, priority 2006, dated 2011).

Key:
ACAT = ACAT enzyme assay (esterification of cholesterol); selectivity DGAT over ACAT; assay type: biochemical; conditions: DGAT vs ACAT enzyme assays
Protocol: • Mouse adipocyte 3T3 cells were cultured to confluency in 6 well plates in new born calf serum containing media. Differentiation of the cells was induced by incubating in medium containing 10% foetal calf serum, 1 μg/mL insulin, 0.25 μM dexamethasone and 0.5 mM isobutylmethyl xanthine. After 48 h the cells were maintained in medium containing 10% foetal calf serum and 1 μg/mL insulin for a further 4-6 days. For the experiment, the medium was changed to serum-free medium and the cells pre-incubated with compound solubilised in DMSO (final concentration 0.1%) for 30 minutes. De novo lipogenesis was measured by the addition of 0.25 mM sodium acetate plus 1 μCi/mL ^14C-sodium acetate to each well for a further 2 h (J. Biol. Chem., 1976, 251, 6462-6464). […] Incorporation of radiolabel into the triglyceride fraction was analysed using a Radiomatic Flo-one Detector (Packard) connected to the HPLC machine. […] De novo lipogenesis was measured by the addition of 50 μM sodium acetate plus 3 μCi/mL ^14C-sodium acetate to each well for a further 3 h (J. Biol. Chem., 1976, 251, 6462-6464). […] Incorporation of radiolabel into the triglyceride fraction was analysed using a Radiomatic Flo-one Detector (Packard) connected to the HPLC machine. • 3) The ability of compounds to inhibit ACAT can be measured using a modification of the enzyme assay described in Billheimer (1985) Methods in Enzymology, 111, 286-293. […]

human DGAT1 = molecular target: T1, human DGAT1 (Homo sapiens, UniProt O75907); experiment: Human Enzyme Assay (DGAT1 inhibition, 14C oleoyl CoA, triolein formation); assay type: biochemical; conditions: human DGAT1 expressed in sf9 insect cell membranes
T1 construct: made in house; host or cells: Sf9 insect cells (baculovirus), membrane fraction
T1 sequence (O75907 1-488): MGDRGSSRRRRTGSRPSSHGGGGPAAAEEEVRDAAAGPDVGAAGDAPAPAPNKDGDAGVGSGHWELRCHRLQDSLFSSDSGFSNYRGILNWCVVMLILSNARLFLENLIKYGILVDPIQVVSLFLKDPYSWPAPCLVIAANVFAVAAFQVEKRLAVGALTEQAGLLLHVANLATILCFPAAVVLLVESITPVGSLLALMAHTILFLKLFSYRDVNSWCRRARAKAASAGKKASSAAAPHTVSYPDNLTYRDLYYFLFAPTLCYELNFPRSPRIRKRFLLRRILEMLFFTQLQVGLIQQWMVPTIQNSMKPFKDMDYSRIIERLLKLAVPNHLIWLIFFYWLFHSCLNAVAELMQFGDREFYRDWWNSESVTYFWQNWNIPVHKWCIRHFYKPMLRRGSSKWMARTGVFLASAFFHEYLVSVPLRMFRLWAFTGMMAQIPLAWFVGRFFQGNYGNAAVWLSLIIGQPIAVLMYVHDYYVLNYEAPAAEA
Protocol: The in vitro assay to identify DGAT1 inhibitors uses human DGAT1 expressed in insect cell membranes as the enzyme source (Proc. Natl. Acad. Sci. 1998, 95, 13018-13023). Briefly, sf9 cells were infected with recombinant baculovirus containing human DGAT1 coding sequences and harvested after 48 h. Cells were lysed by sonication and membranes isolated by centrifuging at 28000 rpm for 1 h at 4° C. on a 41% sucrose gradient. The membrane fraction at the interphase was collected, washed, and stored in liquid nitrogen.
DGAT1 activity was assayed by a modification of the method described by Coleman (Methods in Enzymology 1992, 209, 98-102). Compound at 1-10 μM was incubated with 0.4 μg membrane protein, 5 mM MgCl2, and 100 μM1,2 dioleoyl-sn-glycerol in a total assay volume of 200 μl in plastic tubes. The reaction was started by adding ^14C oleoyl coenzyme A (30 μM final concentration) and incubated at room temperature for 30 minutes. The reaction was stopped by adding 1.5 mL 2-propanol:heptane:water (80:20:2). Radioactive triolein product was separated into the organic phase by adding 1 mL heptane and 0.5 mL 0.1 M carbonate buffer pH 9.5. DGAT1 activity was quantified by counting aliquots of the upper heptane layer by liquid scintillography.

- selectivity to inhibit DGAT over inhibition of ACAT (ratio of IC50 values in the DGAT and ACAT enzyme assays) (ACAT): 70 fold
- IC50 (human DGAT1): 4 nM
SMILES: O=C(Nc1ccc(O[C@H]2CC[C@@H](C(=O)O)CC2)cc1F)c1nnc(Nc2cc(F)c(F)cc2F)o1 [Example 1, cis-4-(3-Fluoro-4-{[5-(2,4,5-trifluoro-phenylamino)-[1,3,4]oxadiazole-2-carbonyl]-amino}-phenoxy)-cyclohexanecarboxylic acid]
